From patent US11759480B2, “Compositions and methods for CAR T cell therapy” (ENDOCYTE, INC., priority 2017, dated 2023) come the findings set out here.

The subject of assay [1] is anti-fluorescein scFv on CAR T cells. Nature of the assay: Competitive binding assay against FITC-Alexa647 on CAR T cells. The following applies: 1 μM competing ligand versus FITC-Alexa647 10 nM. The method, then: To examine the ability of bridge molecules to bind anti-fluorescein scFv on CAR T cells, a competitive binding assay was developed. Measurement of the fluorescein signal from CAR T cell bound bridges could not be used due to the overlap of its fluorescence with that of the GFP expressing CAR T cells. For this purpose, FITC-Alexa647 (10 nM) was allowed to bind anti-fluorescein CAR T cells in the absence or presence of excess (1 μM) competing ligand (i.e. FITC-folate, FITC-DUPA, FITC-CA9) for 1 h at room temperature. After incubation, anti-fluorescein CAR T cells were washed 3× with PBS to remove unbounded FITC-Alexa647, and the washed cells were analyzed for Alexa647 fluorescence by flow cytometry.
Fluorescein-folate (FITC-folate) and fluorescein-PSMA (FITC-DUPA) were synthesized as previously described. To examine the ability of these bridge molecules to bind anti-fluorescein scFv on CAR T cells, a competitive binding assay had to be developed, because measurement of the fluorescein signal from CAR T cell bound bridge could not be used due to the overlap of its fluorescence with that of the GFP expressing CAR T cells. For this purpose, FITC-Alexa647 (10 nM) was allowed to bind anti-fluorescein CAR T cells in the absence or presence of excess (1 μM) competing ligand (i.e. FITC-folate) for 1 h at room temperature. After incubation, anti-fluorescein CAR T cells were washed 3× with PBS to remove unbounded FITC-Alexa647, and the washed cells were analyzed for Alexa647 fluorescence by flow cytometry. For analysis of FITC-folate to binding to folate receptor, FR positive KB cells were incubated with FITC-folate (100 nM) in the absence or presence of excess (10 μM) free folate (i.e. as a competitive ligand). After washing samples with PBS (3 times), samples were analyzed by flow cytometry for fluorescein-folate binding.

The subject of assay [2] is PSMA+ MDA-MB-231 and CA9+ MDA-MB-231. Nature of the assay: Two tumors treated with cocktail of bridge molecules in vivo (Example 42). Also noted: species or system NSG mice. The following applies: only one of the bridges infused. The text has this: In order to evaluate whether a cocktail of bridge molecules can eliminate two tumors expressing orthogonal antigens, we established two different tumor models. As a first tumor model, each of PSMA+ MDA-MB-231 and CA9+ MDA-MB-231 were implanted into NSG mice at two different locations (i.e. right flank: CA9+ MDA-MB-231, left flank: PSMA+ MDA-MB-231). For the second tumor model, PSMA+ MDA-MB-231 and CA9+ MDA-MB-231 were pre-mixed at a 1:1 ratio and implanted at one location.
PSMA+ MDA-MB-231 and CA9+ MDA-MB-231 were implanted into NSG mice (Jackson Laboratory, ME) either at two different locations (i.e. right flank: PSMA+ MDA-MB-231, left flank: CA9+ MDA-MB-231) or one location after two tumor cells were pre-mixed (i.e. 50% of PSMA+ MDA-MB-231 and 50% of CA9+ MDA-MB-231). When tumors reached ˜100 mm3 in size, anti-fluorescein CAR T cells (8×10^6) were injected plus FITC-DUPA, FITC-CA9 or both. Tumors were measured every other day with calipers, and tumor volume was calculated according to the equation: Tumor volume=½(L×W2) where L is the longest axis of the tumor and W is the axis perpendicular to L. Results are shown in FIGS. 49A and 49B.

As to `O=C(O)CC[C@H](NC(=O)N[C@@H](CCC(=O)NCCCCCCCC(=O)N[C@@H](Cc1ccccc1)C(=O)N[C@@H](Cc1ccccc1)C(=O)NCCNC(=S)Nc1ccc(-c2c3ccc(=O)cc-3oc3cc(O)ccc23)c(C(=O)O)c1)C(=O)O)C(=O)O` [FITC-DUPA], the “binding to CAR-expressing T cells” value in assay [1] is “able to bind to the CAR-expressing T cells”. In addition, in assay [2], the “growth of tumor expressing unmatched antigen” value is on record as “continuously grew”.

With FITC-PEG2-CA9 [FITC-CA9], in assay [1], the “binding to CAR-expressing T cells” value was “able to bind to the CAR-expressing T cells”. The “growth of tumor expressing unmatched antigen” value in assay [2] is on record as “continuously grew”.
